Patent publication US11179391B2, “Compound with kinase inhibitory activity and preparation method and use thereof” (priority 2017, dated 2021)

Tests used:
Format in all cases: biochemical
CDK4/CycD3 = CDK4/CycD3 (Homo sapiens, UniProt P11802); assay: Determination of CDK activity (Caliper mobility shift, FAM-P8 peptide): CDK4; settings: CDK4/CycD3; read-out: CDK4 enzymatic inhibitory activity (IC50)
Method: (§1) In vitro, CDK (CDK4, CDK6, CDK1, CDK2, CDK7, and CDK9) kinase activity was tested by the following method.
(§2) CDK and raw materials used here: CDK4/CycD3 (Carna, Cat. No 04-105, Lot. No 10CBS-0429 C, GST-CDK4(1-303end)/GST-CycD3(1-292end)); CDK6/cycD3 (Carna, Cat. No 04-107, Lot. No 09CBS-0622K, GST-CDK6(1-326(end))); CDK1/CyclinB (Millipore, Cat. 14-450k, Lot. No 25729U, His-CDK1+GST-cyclinB); CDK2/CycA2 (Carna, Cat. No 04-103, Lot. No 06CBS-3024, GST-CDK2 (1-298(end))); CDK7/CyclinH/MAT1 (Millipore, Cat. No 14-476M, Lot. No WAB0365-A, His-CDK7+GST-MAT1+cyclinH); CDK9/cyclinTl (Millipore, Cat. No 14-685K, Lot. No. 2476163-A, His-CDK9+cyclinTl); Peptide FAM-P8 (GL Biochem, Cat. No. 112396, Lot. No. P100804-XZ112396); ATP (Sigma, Cat. No. A7699-1G, CAS No. 987-65-5); DMSO (Sigma, Cat. No. D2650, Lot. No. 474382); EDTA (Sigma, Cat. No. E5134, CAS No. 60-00-4); 96-well plate (Corning, Cat. No. 3365, Lot. No. 22008026); 384-well plate (Corning, Cat. No. 3573, Lot. No. 12608008); Staurosporine (Sigma, Cat. No. S4400-1MG, Lot. No. 046K4080).
(§3) 1. Prepared 1× Kinase Buffer and Stop Buffer for the Test
2) 1× Kinase Base Buffer (CDK4).
(§4) 1) Diluted the compound to 50 times of the maximum concentration with 100% DMSO. For example, if the desired maximum inhibitory concentration is 10 μM, then a DMSO solution of 500 μM concentration is required.
(§5) 2) Transferred the compound to a 96-well plate and serially diluted the compound from a 100% DMSO solution at a ratio of 30 μm to 60 μm for a total of 10 concentrations gradients. 3) Transferred 100 μm of 100% DMSO to two empty wells as a no compound control and a no enzyme control.
(§6) 4) Prepared intermediate plate and transferred the compound of 10 μm concentration from the original plate to the intermediate plate, and then 90 μm of 1× kinase buffer was added and mixed by shaking for 10 min.
(§7) 4) Preparing intermediate plate and transferred the compound of […] concentration from the original plate to the intermediate plate, and then 90 μm of 1× kinase buffer was added and mixed by shaking for 10 min.
(§8) 1) Transferred 5 μm of each compound from the 96-well intermediate plate to a 384-well plate. For example, A1 of the 96-well plate was transferred to A1 and A2 of the 384-well plate. A2 of the 96-well plate was transferred to A3 and A4 of the 384-well plate, and so on.
(§9) 1) Prepared a 2.5× enzyme solution: added kinase into 1× kinase base buffer.
(§10) 2) Prepared a 2.5× peptide solution: added FAM-labeled peptide and ATP into the 1× kinase base buffer.
(§11) 3) Transferred the 2.5× enzyme solution to the assay plate: Assay plate already contained 5 μm of 10% DMSO and transferred 10 μm of 2.5× enzyme solution to each well.
(§12) 4) Incubated at room temperature for 10 min.
(§13) 5) Transferred the 2.5× peptide solution to the assay plate: added 10 μm of 2.5× peptide solution to each well of the 384-well assay plate.
(§14) 6) Kinase reaction and termination: incubated at 28° C. for a specified period and added 25 μm of stop buffer to stop the reaction.
(§15) 5. Caliper Reading: Collect Data on Caliper.
(§16) 1) Copied conversion data from Caliper program and Converted conversion values to inhibition values: Inhibition rate (%)=(1−OD value of the compound-OD value of the control well)/(OD value of the control empty-OD value of the control well)*100%.
(§17) 2) Fitted the data in XLFit excel add-in version 4.3.1 to give the corresponding IC50 values.

CDK6/cycD3 = CDK6/cycD3 (Homo sapiens, UniProt Q00534); assay: Determination of CDK activity (Caliper mobility shift, FAM-P8 peptide): CDK6; settings: CDK6/cycD3; read-out: CDK6 enzymatic inhibitory activity (IC50)
Sequence of CDK6/cycD3 (Q00534 whole entry): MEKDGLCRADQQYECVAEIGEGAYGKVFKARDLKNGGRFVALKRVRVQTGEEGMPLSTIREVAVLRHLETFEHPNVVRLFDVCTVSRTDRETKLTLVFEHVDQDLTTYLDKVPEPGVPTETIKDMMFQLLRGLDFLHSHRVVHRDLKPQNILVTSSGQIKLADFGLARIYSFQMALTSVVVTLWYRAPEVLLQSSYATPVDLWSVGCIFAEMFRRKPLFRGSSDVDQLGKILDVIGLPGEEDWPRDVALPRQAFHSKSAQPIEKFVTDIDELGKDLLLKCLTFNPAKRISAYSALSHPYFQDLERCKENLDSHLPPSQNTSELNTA
Sequence of CDK6/cycD3 (P30281 whole entry partner): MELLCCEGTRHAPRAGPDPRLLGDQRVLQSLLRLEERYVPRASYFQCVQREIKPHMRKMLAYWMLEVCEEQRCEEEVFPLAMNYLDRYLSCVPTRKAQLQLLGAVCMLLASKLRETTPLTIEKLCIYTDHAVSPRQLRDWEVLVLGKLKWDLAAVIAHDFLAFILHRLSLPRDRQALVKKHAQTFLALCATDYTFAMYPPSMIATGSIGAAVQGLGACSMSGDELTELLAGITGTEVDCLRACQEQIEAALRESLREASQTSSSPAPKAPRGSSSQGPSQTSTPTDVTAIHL
Method: as §1, §2, §3
(§18) 1) 1× Kinase Base Buffer (CDK1, 2, and 6).
as §4, §5, §6, §7, §8, §9, §10, §11, §12, §13, §14, §15, §16, §17

CDK1/CyclinB = CDK1/CyclinB (Homo sapiens, UniProt P06493); assay: Determination of CDK activity (Caliper mobility shift, FAM-P8 peptide): CDK1; settings: CDK1/CyclinB; read-out: CDK1 enzymatic inhibitory activity (IC50)
Sequence of CDK1/CyclinB (P06493 whole entry): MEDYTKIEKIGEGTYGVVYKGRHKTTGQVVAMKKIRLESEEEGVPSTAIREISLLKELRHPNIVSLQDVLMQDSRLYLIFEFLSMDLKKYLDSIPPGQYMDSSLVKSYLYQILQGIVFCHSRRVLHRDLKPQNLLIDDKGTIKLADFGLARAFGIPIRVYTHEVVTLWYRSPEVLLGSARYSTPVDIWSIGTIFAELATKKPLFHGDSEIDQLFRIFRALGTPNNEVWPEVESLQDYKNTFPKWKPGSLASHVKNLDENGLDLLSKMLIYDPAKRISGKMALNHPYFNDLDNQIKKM
Sequence of CDK1/CyclinB (P14635 whole entry partner): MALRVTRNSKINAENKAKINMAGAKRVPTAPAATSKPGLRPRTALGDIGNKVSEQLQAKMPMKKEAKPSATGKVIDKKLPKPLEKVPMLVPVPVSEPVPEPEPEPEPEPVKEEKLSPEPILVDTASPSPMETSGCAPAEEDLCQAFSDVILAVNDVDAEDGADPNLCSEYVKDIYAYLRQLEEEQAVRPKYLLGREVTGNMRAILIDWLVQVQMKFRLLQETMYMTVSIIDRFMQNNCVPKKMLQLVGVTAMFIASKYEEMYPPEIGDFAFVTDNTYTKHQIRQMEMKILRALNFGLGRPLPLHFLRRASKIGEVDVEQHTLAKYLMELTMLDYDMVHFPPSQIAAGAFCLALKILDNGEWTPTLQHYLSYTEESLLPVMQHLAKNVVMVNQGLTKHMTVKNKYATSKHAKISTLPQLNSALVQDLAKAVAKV
Method: as §1, §3, §18, §4, §5
(§19) 1) Transferred 5 μm of each compound from the 96-well intermediate plate to a 384-well plate. […] A2 of the 96-well plate was transferred to A3 and A4 of the 384-well plate, and so on.
as §9, §10, §11, §12, §13, §14, §15, §16, §17

CDK2/CycA2 = CDK2/CycA2 (Homo sapiens, UniProt P24941); assay: Determination of CDK activity (Caliper mobility shift, FAM-P8 peptide): CDK2; settings: CDK2/CycA2; read-out: CDK2 enzymatic inhibitory activity (IC50)
Method: as §1, §3, §18, §4, §5, §19, §9, §10, §11, §12, §13, §14, §15, §16, §17

CDK7/CyclinH/MAT1 = CDK7/CyclinH/MAT1 (Homo sapiens, UniProt P50613); assay: Determination of CDK activity (Caliper mobility shift, FAM-P8 peptide): CDK7; settings: CDK7/CyclinH/MAT1; read-out: CDK7 enzymatic inhibitory activity (IC50)
Sequence of CDK7/CyclinH/MAT1 (P50613 whole entry): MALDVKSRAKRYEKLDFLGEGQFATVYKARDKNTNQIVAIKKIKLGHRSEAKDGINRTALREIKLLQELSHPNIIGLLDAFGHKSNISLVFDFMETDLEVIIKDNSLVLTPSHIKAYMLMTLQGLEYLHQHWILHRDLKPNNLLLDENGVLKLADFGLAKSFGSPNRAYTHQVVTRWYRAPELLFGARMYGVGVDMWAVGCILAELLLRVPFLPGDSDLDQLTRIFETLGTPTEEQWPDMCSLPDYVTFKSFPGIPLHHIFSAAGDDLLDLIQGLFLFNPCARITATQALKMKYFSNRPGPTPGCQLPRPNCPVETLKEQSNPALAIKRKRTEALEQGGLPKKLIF
Sequence of CDK7/CyclinH/MAT1 (P51946 whole entry partner): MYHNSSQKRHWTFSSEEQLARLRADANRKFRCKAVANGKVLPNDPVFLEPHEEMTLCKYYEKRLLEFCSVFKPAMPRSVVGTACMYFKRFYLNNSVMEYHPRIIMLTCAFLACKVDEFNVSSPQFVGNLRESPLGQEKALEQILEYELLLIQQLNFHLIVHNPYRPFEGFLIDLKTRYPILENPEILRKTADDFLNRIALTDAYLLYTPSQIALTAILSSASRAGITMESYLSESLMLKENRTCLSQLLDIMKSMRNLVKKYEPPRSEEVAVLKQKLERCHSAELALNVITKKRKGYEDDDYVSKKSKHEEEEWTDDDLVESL
Sequence of CDK7/CyclinH/MAT1 (P51948 whole entry partner): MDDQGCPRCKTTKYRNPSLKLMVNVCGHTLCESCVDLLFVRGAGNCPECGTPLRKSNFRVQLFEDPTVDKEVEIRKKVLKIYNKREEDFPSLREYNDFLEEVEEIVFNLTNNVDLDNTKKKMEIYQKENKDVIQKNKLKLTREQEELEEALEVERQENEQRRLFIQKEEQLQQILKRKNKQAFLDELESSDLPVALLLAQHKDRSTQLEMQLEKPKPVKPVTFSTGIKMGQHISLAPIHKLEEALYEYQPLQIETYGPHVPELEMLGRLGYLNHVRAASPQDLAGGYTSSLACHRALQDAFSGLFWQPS
Method: as §1, §2, §3
(§20) 3) 1× Kinase Base Buffer (CDK7 and 9).
as §4, §5, §6, §7, §8, §9, §10, §11, §12, §13, §14, §15, §16, §17

CDK9/cyclinTl = CDK9/cyclinTl (Homo sapiens, UniProt P50750); assay: Determination of CDK activity (Caliper mobility shift, FAM-P8 peptide): CDK9; settings: CDK9/cyclinTl; read-out: CDK9 enzymatic inhibitory activity (IC50)
Sequence of CDK9/cyclinTl (P50750 whole entry): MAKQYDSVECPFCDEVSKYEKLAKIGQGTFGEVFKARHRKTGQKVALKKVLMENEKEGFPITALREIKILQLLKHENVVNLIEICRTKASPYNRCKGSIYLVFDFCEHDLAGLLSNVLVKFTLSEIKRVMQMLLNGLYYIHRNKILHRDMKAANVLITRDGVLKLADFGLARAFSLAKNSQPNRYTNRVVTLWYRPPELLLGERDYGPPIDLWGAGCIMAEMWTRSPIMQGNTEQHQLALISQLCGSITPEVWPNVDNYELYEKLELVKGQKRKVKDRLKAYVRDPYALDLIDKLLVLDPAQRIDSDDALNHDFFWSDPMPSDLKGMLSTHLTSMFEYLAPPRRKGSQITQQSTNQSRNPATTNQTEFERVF
Sequence of CDK9/cyclinTl (O60563 whole entry partner): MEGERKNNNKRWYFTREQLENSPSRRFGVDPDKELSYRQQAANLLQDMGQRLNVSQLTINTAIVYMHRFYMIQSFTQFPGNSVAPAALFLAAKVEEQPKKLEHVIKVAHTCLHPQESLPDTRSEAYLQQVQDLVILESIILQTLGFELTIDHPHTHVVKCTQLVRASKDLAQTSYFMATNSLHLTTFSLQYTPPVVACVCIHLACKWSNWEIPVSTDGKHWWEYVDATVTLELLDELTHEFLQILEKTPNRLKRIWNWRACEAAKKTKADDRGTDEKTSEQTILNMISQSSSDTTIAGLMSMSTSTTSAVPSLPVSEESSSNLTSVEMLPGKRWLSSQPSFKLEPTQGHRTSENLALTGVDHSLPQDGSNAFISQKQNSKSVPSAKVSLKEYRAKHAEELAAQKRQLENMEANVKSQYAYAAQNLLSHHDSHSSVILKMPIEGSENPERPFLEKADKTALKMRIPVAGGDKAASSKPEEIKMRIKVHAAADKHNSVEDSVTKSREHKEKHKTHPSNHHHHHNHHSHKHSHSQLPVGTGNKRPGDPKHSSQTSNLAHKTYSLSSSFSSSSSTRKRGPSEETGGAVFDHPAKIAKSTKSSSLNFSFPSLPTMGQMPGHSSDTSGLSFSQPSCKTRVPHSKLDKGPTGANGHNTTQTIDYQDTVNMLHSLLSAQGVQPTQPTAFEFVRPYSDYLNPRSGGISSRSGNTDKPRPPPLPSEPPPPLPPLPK
Method: as §1, §3, §20, §4, §5, §19, §9, §10, §11, §12, §13, §14, §15, §16, §17

Sequence of CDK4/CycD3 (P11802 whole entry): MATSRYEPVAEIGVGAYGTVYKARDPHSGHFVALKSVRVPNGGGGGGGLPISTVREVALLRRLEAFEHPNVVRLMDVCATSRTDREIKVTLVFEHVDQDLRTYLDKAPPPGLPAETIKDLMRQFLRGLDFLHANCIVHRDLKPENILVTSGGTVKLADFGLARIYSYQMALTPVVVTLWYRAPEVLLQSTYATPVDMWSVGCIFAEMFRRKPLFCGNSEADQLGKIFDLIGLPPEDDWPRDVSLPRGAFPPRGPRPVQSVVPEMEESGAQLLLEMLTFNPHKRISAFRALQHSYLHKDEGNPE
Sequence of CDK4/CycD3 (P30281 whole entry partner): as the sequence (P30281 whole entry partner) above

Row | Compound | IC50 (CDK4/CycD3) [nM] | IC50 (CDK6/cycD3) [nM] | IC50 (CDK1/CyclinB) [nM] | IC50 (CDK2/CycA2) [nM] | IC50 (CDK7/CyclinH/MAT1) [nM] | IC50 (CDK9/cyclinTl) [nM]
1 | Cc1nc2c(F)cc(-c3nc(Nc4ccc(C(C)C5CCNCC5)cn4)ncc3F)cc2n1C(C)C (single isomer, unassigned) [Example 19, (R or S)-5-fluoro-4-(4-fluoro-1-isopropyl-2-methyl-1H-benzo[d]imidazol-6-yl)-N-(5-(1-(piperidin-4-yl)ethyl)pyridin-2-yl) pyrimidin-2-amine] | 100 to 500 | < 100 | 100 to 500 | 100 to 500 | 1000 to 10000 | 100 to 500
2 | Cc1nc2c(F)cc(-c3nc(Nc4ccc(C(C)C5CCNCC5)cn4)ncc3F)cc2n1C(C)C (single isomer, unassigned) [Example 20, (R or S)-5-fluoro-4-(4-fluoro-1-isopropyl-2-methyl-1H-benzo[d]imidazol-6-yl)-N-(5-(1-(piperidin-4-yl)ethyl)pyridin-2-yl) pyrimidin-2-amine] | < 100 | 100 to 500 | 500 to 1000 | 100 to 500 | 1000 to 10000 | 500 to 1000
3 | Cc1nc2c(F)cc(-c3nc(Nc4ccc([C@H](C)C5CCN(C)CC5)cn4)ncc3F)cc2n1C(C)C (single isomer, unassigned) [Example 21] | < 100 | < 100 | 100 to 500 | < 100 | 1000 to 10000 | 100 to 500
4 | Cc1nc2c(F)cc(-c3nc(Nc4ccc([C@@H](C)C5CCN(C)CC5)cn4)ncc3F)cc2n1C(C)C (single isomer, unassigned) [Example 22] | < 100 | 100 to 500 | 500 to 1000 | 100 to 500 | 1000 to 10000 | 500 to 1000
5 | CCN1CCC(C(O)c2ccc(Nc3ncc(F)c(-c4cc(F)c5nc(C)n(C(C)C)c5c4)n3)nc2)CC1 (single isomer, unassigned) [Example 41, (R or S)-(1-ethylpiperidin-4-yl)(6-((5-fluoro-4-(4-fluoro-1-isopropyl-2-methyl-1H-benzo [d]imidazol-6-yl)pyrimidin-2-yl)amino)pyridin-3-yl) methanol] | < 100 | < 100 | 100 to 500 | < 100 | 500 to 1000 | 100 to 500
6 | CCN1CCC(C(OC(C)=O)c2ccc(Nc3ncc(F)c(-c4cc(F)c5nc(C)n(C(C)C)c5c4)n3)nc2)CC1 (single isomer, unassigned) [Example 71, (R or S)-(1-ethylpiperidin-4-yl) (6-((5-fluoro-4-(4-fluoro-1-isopropyl-2-methyl-1H-benzo[d]imidazol-6-yl)pyrimidin-2-yl)amino)pyridin-3-yl) methyl acetate] | < 100 | < 100 | 100 to 500 | < 100 | 1000 to 10000 | 100 to 500
7 | CCN1CCC(C(OC(C)=O)c2ccc(Nc3ncc(F)c(-c4cc(F)c5nc(C)n(C(C)C)c5c4)n3)nc2)CC1 (single isomer, unassigned) [Example 72, (R or S)-(1-ethylpiperidin-4-yl) (6-((5-fluoro-4-(4-fluoro-1-isopropyl-2-methyl-1H-benzo[d]imidazol-6-yl)pyrimidin-2-yl)amino)pyridin-3-yl) methyl acetate] | < 100 | < 100 | 100 to 500 | < 100 | 1000 to 10000 | 100 to 500

Results, then the compound that gave them:

Row | IC50 (CDK4/CycD3) [nM] | IC50 (CDK6/cycD3) [nM] | IC50 (CDK1/CyclinB) [nM] | IC50 (CDK2/CycA2) [nM] | IC50 (CDK7/CyclinH/MAT1) [nM] | IC50 (CDK9/cyclinTl) [nM] | Compound
8 | < 100 | 1000 to 10000 | 10000 to 100000 | 1000 to 10000 | 1000 to 10000 | 1000 to 10000 | CCC(c1ccc(Nc2ncc(F)c(-c3cc(F)c4nc(C)n(C(C)C)c4c3)n2)nc1)N1CCN(CC)CC1 (racemic) [Example 1, N-(5-(1-(4-ethylpiperazin-1-yl)propyl)pyridin-2-yl)-5-fluoro-4-(4-fluoro-1-isopropyl-2-methyl-1H-benzo[d]imidazol-6-yl)pyrimidin-2-amine]
9 | < 100 | < 100 | 100 to 500 | < 100 | 1000 to 10000 | 100 to 500 | CCN1CCC(C(C)c2ccc(Nc3ncc(F)c(-c4cc(F)c5nc(C)n(C(C)C)c5c4)n3)nc2)CC1 (racemic) [Example 16, N-(5-(1-(1-ethylpiperidin-4-yl)ethyl)pyridin-2-yl)-5-fluoro-4-(4-fluoro-1-isopropyl-2-methyl-1H-benzo[d]imidazol-6-yl)pyrimidin-2-amine]
10 | < 100 | < 100 | < 100 | < 100 | 100 to 500 | < 100 | CCN1CCC(C(O)c2ccc(Nc3ncc(F)c(-c4cc(F)c5nc(C)n(C(C)C)c5c4)n3)nc2)CC1 (racemic) [Example 39, (1-Ethylpiperidin-4-yl)(6-((5-fluoro-4-(4-fluoro-1-isopropyl-2-methyl-1H-benzo[d]imidazol-6-yl)pyrimidin-2-yl)amino)pyridin-3-yl)methanol]
11 | < 100 | 100 to 500 | 10000 to 100000 | 1000 to 10000 | 1000 to 10000 | 1000 to 10000 | CCC(c1ccc(Nc2ncc(F)c(-c3cc(F)c4nc(C)n(C(C)C)c4c3)n2)nc1)N1CCN(CC)CC1 (single isomer, unassigned) [Example 2, (R or S)—N-(5-(1-(4-ethylpiperazin-1-yl)propyl)pyridin-2-yl)-5-fluoro-4-(4-fluoro-1-isopropyl-2-methyl-1H-benzo[d]imidazol-6-yl) pyrimidin-2-amine]
12 | < 100 | 100 to 500 | 10000 to 100000 | 10000 to 100000 | 1000 to 10000 | 10000 to 100000 | CCC(c1ccc(Nc2ncc(F)c(-c3cc(F)c4nc(C)n(C(C)C)c4c3)n2)nc1)N1CCN(CC)CC1 (single isomer, unassigned) [Example 3, (R or S)—N-(5-(1-(4-ethylpiperazin-1-yl)propyl)pyridin-2-yl)-5-fluoro-4-(4-fluoro-1-isopropyl-2-methyl-1H-benzo[d]imidazol-6-yl) pyrimidin-2-amine]
13 | < 100 | 100 to 500 | 500 to 1000 | 100 to 500 | 1000 to 10000 | 500 to 1000 | CCN1CCC(C(C)c2ccc(Nc3ncc(F)c(-c4cc(F)c5nc(C)n(C(C)C)c5c4)n3)nc2)CC1 (single isomer, unassigned) [Example 18, (R or S)—N-(5-(1-(1-ethylpiperidin-4-yl)ethyl)pyridin-2-yl)-5-fluoro-4-(4-fluoro-1-isopropyl-2-methyl-1H-benzo[d]imidazol-6-yl) pyrimidin-2-amine]
